Laboratory results reported in patent publication US20100239652A1, “IMMUNOLIPOSOMES FOR TREATMENT OF CANCER” (UNIVERSITATSSPITAL BASEL, priority 2008, published 2010).
Values after ≈ are worked out from the molar mass of the structure shown.

B1: EMD72000-ILs-dox (conjugate, chains of the INN, looked up)
VH: QVQLVQSGAEVKKPGASVKVSCKASGYTFTSHWMHWVRQAPGQGLEWIGEFNPSNGRTNYNEKFKSKATMTVDTSTNTAYMELSSLRSEDTAVYYCASRDYDYDGRYFDYWGQGTLVTVSS
VL: DIQMTQSPSSLSASVGDRVTITCSASSSVTYMYWYQQKPGKAPKLLIYDTSNLASGVPSRFSGSGSGTDYTFTISSLQPEDIATYYCQQWSSHIFTFGQGTKVEIK
modifications: doxorubicin-loaded immunoliposomes

Key:
MDA-MB-231/mdr cells = assay: Accumulation of doxorubicin in the cytoplasma and nuclei; format: cell-based, human; settings: multidrug resistant tumor cells
Procedure: For comparative accumulation studies, tumor cells (HT-29, HT-29 ROB, MDA-MB-231 or MDA-MB-231 Vb100) have been plated at a density of 200,000 cells per well in 12-well plates. Free doxorubicin, non-targeted liposomal doxorubicin (PLD) and immunoliposomal doxorubicin have been applied at a doxorubicin concentration of 3 μg/ml for 2 h at 37° C., followed by 2 washing rounds with media. Verapamil was added to the experiment in a concentration of 0, 10 or 100 μM. After another 2 h incubation without any treatment cells were analyzed as follows:
After removing the media, cells were washed once with 1 ml of culture medium containing FCS, followed by 1 ml of PBS with calcium and magnesium at room temperature (RT) for 3 min. […] For nuclear accumulation of doxorubicin the pellet with the nuclei was washed twice with 500 μl PBS containing 1% C100T and using subsequent centrifugation as described before. After careful removing of the final supernatant, doxorubicin from the pellets was extracted overnight by 400 μl 50% acid methanol.
From both cytoplasmic and nuclear extracts, 300 μl were transferred into a 96-well plate and measured by a “SpertraMax Gemini Fluorimeter” (Molecular Devices).

[1] = system: MDA-MB-231 wild type xenograft; assay: Tumor xenograft model, wild type; format: in vivo; settings: for antitumor effect (tumor growth): i.v. 10 mg doxorubicin/kg once weekly for 3 weeks, total 30 mg dox/kg, compared to saline
Procedure: (§1) Efficacy for non-targeted liposomes versus anti-EGFR immunoliposomes were studied in the MDA-MB-231 wild type and resistant breast cancer xenograft tumor model. Swiss nu/nu mice (5-6 weeks; Charles River, France) were injected subcutaneously (s.c.) with EGFR-overexpressing MDA-MB-231 tumor cells (1×10^7 cells, wild type or resistant) into the back of the animal. […] Free drug was injected on the same schedule as liposomes or immunoliposomes intravenously at their MTD of 30 mg dox/kg for doxorubicin. In control groups, saline was administered intravenously at the same injection volume and schedule.
(§2) Tumor growth was monitored for a period of 55-100 days post tumor implantation. Mice were weighted and examined for toxicity three times a week. Tumor measurements were performed 2-3 times weekly using a caliper, and tumor volumes were calculated using the equation: (length × width^2)/2.
In the wild-type MDA-MB-231 xenograft model lacking mdr features, anti-EGFR immunoliposome-dox was administered i.v. at a total dose of 30 mg dox/kg divided into three weekly doses of 10 mg/kg. […] Control treatments included: saline; free doxorubicin and non-targeted liposomal doxorubicin (commercial pegylated liposomal doxorubicin; PLD) at the same dose and schedule as immunoliposomes.
(§3) In addition, a multivariate (rank) test was performed based on the sums of ranks for each mouse. Tumor size at each time point after last treatment was ranked across all mice for that day and the ranks were summed. The sum of the ranks was compared in each case for two treatments by a 2-sample t-test (42).

[2] = system: MDA-MB-231 Vb100 xenograft; assay: Tumor xenograft model, multi-drug resistant; format: in vivo; settings: i.v. 10 mg doxorubicin/kg once weekly for 3 weeks, total 30 mg dox/kg, compared to saline
Procedure: as §1, §2
Comparators included saline, free doxorubicin and non-targeted liposomal doxorubicin (commercial pegylated liposomal doxorubicin; PLD) at the same dose and schedule as immunoliposomes.
as §3

HT-29 WT = assay: Cytotoxicity study, MTT staining; format: cell-based, human
Procedure: (§4) Specific cytotoxicity of EGFR-targeted immunoliposomes containing doxorubicin was evaluated in target cells plated at a density of 8,000 cells per well in 96-well plates and allowed to grow overnight. Immunoliposomes or control treatments were applied for 2 h at 37° C., followed by washing with PBS and re-adding growth media. Cells were further incubated at 37 DC for 3 days and analyzed for cell viability using 3-(4,5-dimethylthiazol-2-yl)-2,5-diphenyl tetrazolium bromide (MTT) staining (41). For the cytotoxicity studies using the efflux pump inhibitor verapamil, this compound was added to the media at a concentration of 100 μM during the complete experiment.

HT-29 RDB = assay: Cytotoxicity study, MTT staining; format: cell-based, human
Procedure: as §4

MDA-MB-231 Vb100 = assay: Cytotoxicity study, MTT staining; format: cell-based, human
Procedure: as §4

Molecule	intracellular distribution (MDA-MB-231/mdr cells)	antitumor effect (tumor growth) [1]	antitumor effect (tumor growth) [2]	antitumor effect (tumor growth) ([2]; listed as free doxorubicin)	IC50 (HT-29 WT; non-resistant HT-29 cells, summary in description) [μg dox/ml]	IC50 (HT-29 WT; treatment for 2 h, MTT after 3 days) [µg/mL]	IC50 (HT-29 RDB; HT-29/mdr cells, summary in description) [μg dox/ml]	IC50 (HT-29 RDB; treatment for 2 h, MTT after 3 days, multi-drug resistant sub cell line) [µg/mL]	IC50 (MDA-MB-231 Vb100; highly drug resistant, 2 h treatment, MTT after 3 days) [mg/L]	IC50 (MDA-MB-231 Vb100; in the presence of verapamil (100 μM)) [mg/L]	tumor regrowth during follow-up ([1]; after day 77 until end of observation (day 100))
COc1cccc2c1C(=O)c1c(O)c3c(c(O)c1C2=O)C[C@@](O)(C(=O)CO)C[C@@H]3O[C@H]1C[C@H](N)[C@H](O)[C@H](C)O1 [free dox, doxorubicin]	efficiently pumped out	some tumor growth inhibition	failed to show any activity	did not show any tumor growth inhibition	0.36	0.3 (≈ 0.552 µM)	6.0	9.5 (≈ 17.5 µM)	130 (≈ 239 µM)	0.9	
B1		substantial tumor regressions	substantial tumor regressions								did not show growth activity
